Assay results reported in ChEMBL document CHEMBL6083277, “Discovery of SZJK-0421: A Novel Potent, Low Toxicity, Selective Second Generation of CRM1 Inhibitor for the Treatment of Both Hematological and Solid Tumors” (J Med Chem, 2024).
Active and inactive are the calls of the source. The rule behind the calls is not given here.

Columns and labels:
KMS-11 = experiment: Antiproliferative activity against human KMS-11 cells assessed as inhibition of cell growth incubated for 72 hrs by celltiter-glo assay; format: functional, cell-based; conditions: KMS-11, 72 h
[1] = Antiproliferative activity against human ARP-1 cells assessed as inhibition of cell growth incubated for 72 hrs by celltiter-glo assay; format: functional, cell-based; conditions: ARP-1, 72 h
LAMA-84 = experiment: Antiproliferative activity against human LAMA-84 cells assessed as inhibition of cell growth incubated for 72 hrs by celltiter-glo assay; format: functional, cell-based; conditions: LAMA-84, 72 h
ARH-77 [2] = experiment: Antiproliferative activity against human ARH-77 cells assessed as inhibition of cell growth incubated for 72 hrs by celltiter-glo assay; format: functional, cell-based; conditions: ARH-77, 72 h
MOLM-13 = experiment: Antiproliferative activity against human MOLM-13 cells assessed as inhibition of cell growth incubated for 72 hrs by celltiter-glo assay; format: functional, cell-based; conditions: MOLM-13, 72 h
HCT-116 = experiment: Antiproliferative activity against human HCT-116 cells assessed as inhibition of cell growth incubated for 72 hrs by celltiter-glo assay; format: functional, cell-based; conditions: HCT-116, 72 h
BXPC-3 = experiment: Antiproliferative activity against human BXPC-3 cells assessed as inhibition of cell growth incubated for 72 hrs by celltiter-glo assay; format: functional, cell-based; conditions: BXPC-3, 72 h
MM1.S [3] = experiment: Inhibition of CRM1 protein expression in human MM1.S cells by Western blot analysis; format: functional, cell-based; conditions: dose 0.25-1.25 µM
MM1.S [4] = experiment: Induction of apoptosis in human MM1.S cells at 0.5 to 1 uM incubated for 48 hrs by Annexin V-FITC/PI staining based flow cytometry analysis; format: functional, cell-based; conditions: dose 0.5-1 µM
MM1.S [5] = experiment: Induction of apoptosis in human MM1.S cells assessed as increase in p53 level at 0.5 to 1 uM incubated for 48 hrs by Western blot analysis; format: functional, cell-based; conditions: dose 0.5-1 µM
[6] = target: Exportin-1 (Homo sapiens) (UniProt O14980); experiment: Inhibition of CRM1 in human MM1.S cells assessed as accumulation of p53 protein level at 0.5 to 1 uM incubated for 24 hrs by Western blot analysis; format: cell-based; conditions: dose 0.5-1 µM
Sequence of Exportin-1 (Homo sapiens) (O14980 whole entry): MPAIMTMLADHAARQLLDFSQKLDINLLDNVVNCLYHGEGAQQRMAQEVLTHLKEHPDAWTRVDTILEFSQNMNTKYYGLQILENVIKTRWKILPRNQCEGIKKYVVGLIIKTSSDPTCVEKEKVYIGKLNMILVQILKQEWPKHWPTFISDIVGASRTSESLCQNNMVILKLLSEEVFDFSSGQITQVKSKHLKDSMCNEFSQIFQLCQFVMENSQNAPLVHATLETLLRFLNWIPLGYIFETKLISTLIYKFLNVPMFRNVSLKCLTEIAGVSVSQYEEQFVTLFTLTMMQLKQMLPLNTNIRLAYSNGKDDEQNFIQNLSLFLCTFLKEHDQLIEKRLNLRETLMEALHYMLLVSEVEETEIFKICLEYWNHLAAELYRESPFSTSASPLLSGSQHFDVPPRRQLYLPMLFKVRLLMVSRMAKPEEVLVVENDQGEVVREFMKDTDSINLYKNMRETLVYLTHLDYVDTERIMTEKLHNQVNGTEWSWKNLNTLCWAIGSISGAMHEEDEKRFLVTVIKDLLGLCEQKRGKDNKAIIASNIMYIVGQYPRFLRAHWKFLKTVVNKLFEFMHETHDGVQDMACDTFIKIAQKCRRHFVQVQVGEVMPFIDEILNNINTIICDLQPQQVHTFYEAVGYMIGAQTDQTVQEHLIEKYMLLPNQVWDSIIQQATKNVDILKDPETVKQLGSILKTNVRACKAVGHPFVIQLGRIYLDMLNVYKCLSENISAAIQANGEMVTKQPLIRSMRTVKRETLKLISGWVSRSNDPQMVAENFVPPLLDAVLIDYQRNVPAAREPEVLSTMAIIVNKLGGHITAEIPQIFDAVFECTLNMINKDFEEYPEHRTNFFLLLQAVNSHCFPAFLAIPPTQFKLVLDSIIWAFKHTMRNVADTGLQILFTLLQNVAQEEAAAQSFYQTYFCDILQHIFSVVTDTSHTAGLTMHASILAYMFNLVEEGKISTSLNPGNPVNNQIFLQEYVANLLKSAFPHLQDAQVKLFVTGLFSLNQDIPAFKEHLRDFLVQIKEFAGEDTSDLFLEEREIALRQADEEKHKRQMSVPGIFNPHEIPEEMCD

MM1.S [7] = experiment: Induction of apoptosis in human MM1.S cells assessed as increase in FOXO3A signal intensity; format: functional, cell-based
[8] = Metabolic stability in dog liver microsomes assessed as half life measured upto 60 mins in presence of NADPH by LC/MS-MS analysis; format: ADME, Canis lupus familiaris, Microsome
[9] = Metabolic stability in human liver microsomes assessed as intrinsic clearance measured upto 60 mins in presence of NADPH by LC/MS-MS analysis; format: ADME, Microsome; conditions: read-out: CLH
[10] = Metabolic stability in rat liver microsomes assessed as intrinsic clearance measured upto 60 mins in presence of NADPH by LC/MS-MS analysis; format: ADME, Microsome; conditions: read-out: CLH
[11] = Metabolic stability in dog liver microsomes assessed as intrinsic clearance measured upto 60 mins in presence of NADPH by LC/MS-MS analysis; format: ADME, Canis lupus familiaris, Microsome; conditions: read-out: CLH
[12] = Half life in male Sprague-Dawley rat at 2 mg/kg, iv measured upto 30 hrs by LC-MS/MS analysis; format: ADME, organism-based; conditions: in vivo
[13] = Half life in male Sprague-Dawley rat at 10 mg/kg, po measured upto 30 hrs by LC-MS/MS analysis; format: ADME, organism-based; conditions: in vivo
[14] = Half life in male Sprague-Dawley rat at 30 mg/kg, po measured upto 30 hrs by LC-MS/MS analysis; format: ADME, organism-based; conditions: in vivo
[15] = Cmax in male Sprague-Dawley rat at 30 mg/kg, po measured upto 30 hrs by LC-MS/MS analysis; format: ADME, organism-based; conditions: in vivo
[16] = Tmax in male Sprague-Dawley rat at 15 mg/kg, po measured upto 30 hrs by LC-MS/MS analysis; format: ADME, organism-based; conditions: in vivo
[17] = AUC (0 to t) in male Sprague-Dawley rat at 2 mg/kg, iv measured upto 30 hrs by LC-MS/MS analysis; format: ADME, organism-based; conditions: in vivo
[18] = AUC (0 to t) in male Sprague-Dawley rat at 10 mg/kg, po measured upto 30 hrs by LC-MS/MS analysis; format: ADME, organism-based; conditions: in vivo
[19] = AUC (0 to t) in male Sprague-Dawley rat at 15 mg/kg, po measured upto 30 hrs by LC-MS/MS analysis; format: ADME, organism-based; conditions: in vivo
[20] = AUC (0 to infinity) in male Sprague-Dawley rat at 2 mg/kg, iv measured upto 30 hrs by LC-MS/MS analysis; format: ADME, organism-based; conditions: in vivo
[21] = AUC (0 to infinity) in male Sprague-Dawley rat at 15 mg/kg, po measured upto 30 hrs by LC-MS/MS analysis; format: ADME, organism-based; conditions: in vivo
[22] = Oral bioavailability in male Sprague-Dawley rat at 10 mg/kg measured upto 30 hrs by LC-MS/MS analysis; format: ADME, organism-based; conditions: in vivo
[23] = target: Voltage-gated inwardly rectifying potassium channel KCNH2 (Homo sapiens, UniProt Q12809); experiment: Inhibition of hERG in HEK293 cells; format: toxicity, cell-based
Sequence of Voltage-gated inwardly rectifying potassium channel KCNH2 (Q12809 whole entry): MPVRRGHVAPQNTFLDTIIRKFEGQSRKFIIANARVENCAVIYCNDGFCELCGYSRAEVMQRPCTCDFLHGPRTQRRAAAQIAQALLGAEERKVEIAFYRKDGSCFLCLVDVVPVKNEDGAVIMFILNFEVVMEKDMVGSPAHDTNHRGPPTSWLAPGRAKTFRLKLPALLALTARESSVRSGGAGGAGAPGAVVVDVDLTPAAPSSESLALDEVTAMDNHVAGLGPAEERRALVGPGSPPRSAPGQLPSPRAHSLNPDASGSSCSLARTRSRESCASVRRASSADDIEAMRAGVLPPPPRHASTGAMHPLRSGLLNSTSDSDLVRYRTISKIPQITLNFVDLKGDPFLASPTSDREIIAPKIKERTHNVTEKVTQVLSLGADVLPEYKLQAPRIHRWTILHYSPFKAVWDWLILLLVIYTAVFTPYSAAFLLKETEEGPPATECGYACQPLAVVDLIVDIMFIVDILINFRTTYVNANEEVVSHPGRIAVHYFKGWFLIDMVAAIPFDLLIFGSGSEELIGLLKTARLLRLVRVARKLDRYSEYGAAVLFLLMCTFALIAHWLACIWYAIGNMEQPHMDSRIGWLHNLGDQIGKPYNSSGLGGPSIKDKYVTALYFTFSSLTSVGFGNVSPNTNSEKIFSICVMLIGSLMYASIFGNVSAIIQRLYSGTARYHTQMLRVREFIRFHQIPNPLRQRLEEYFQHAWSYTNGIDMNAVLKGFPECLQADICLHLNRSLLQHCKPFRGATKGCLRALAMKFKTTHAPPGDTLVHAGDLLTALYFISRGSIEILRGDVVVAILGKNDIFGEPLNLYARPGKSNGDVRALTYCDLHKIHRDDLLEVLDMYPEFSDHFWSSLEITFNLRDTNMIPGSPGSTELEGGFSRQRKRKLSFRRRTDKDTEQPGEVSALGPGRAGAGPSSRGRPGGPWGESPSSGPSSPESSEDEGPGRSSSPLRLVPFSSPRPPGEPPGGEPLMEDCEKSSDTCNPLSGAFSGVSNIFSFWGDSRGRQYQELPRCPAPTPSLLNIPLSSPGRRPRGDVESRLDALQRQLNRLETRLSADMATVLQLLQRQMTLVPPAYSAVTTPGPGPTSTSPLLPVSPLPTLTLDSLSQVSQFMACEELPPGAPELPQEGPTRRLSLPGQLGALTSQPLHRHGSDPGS

[24] = Cmax in male Sprague-Dawley rat plasma at 10 mg/kg, IG measured at 6 hrs by LC-MS/MS analysis; format: ADME, organism-based; conditions: po
[25] = AUC in male Sprague-Dawley rat brain at 10 mg/kg, IG measured at 6 hrs by LC-MS/MS analysis; format: ADME, organism-based; conditions: po
[26] = Toxicity in BALB/c mouse assessed as weight loss at 60 mg/kg, po administered once daily for 21 days; format: organism-based; conditions: in vivo, 504 h, time 21 day
[27] = Toxicity in BALB/c mouse assessed as side effect at 60 mg/kg, po administered once daily for 21 days; format: organism-based; conditions: in vivo, 504 h, time 21 day
[28] = Toxicity in BALB/c mouse assessed as shortened intestinal tract at 90 to 120 mg/kg, po administered once daily for 21 days; format: organism-based; conditions: in vivo, 504 h, dose 90-120 mg/kg, time 21 day
MM1.S [29] = experiment: Antitumor activity against human MM1.S cells xenografted in NOD-SCID mouse assessed as tumor growth inhibition at 15 mg/kg, po qd measured upto 21 days; format: functional; conditions: 504 h, time <= 21 day, read-out: TGI
ARH-77 [30] = experiment: Antitumor activity against human ARH-77 cells xenografted in NOD-SCID mouse at 15 to 60 mg/kg, po measured every 2 days for 21 days; format: functional, organism-based; conditions: dose 15-60 mg/kg, time 21.0 day
[31] = Toxicity in NOD-SCID mouse implanted with human ARH-77 cells assessed as change in body weight at 15 to 60 mg/kg, po measured every 2 days for 21 days; format: organism-based; conditions: in vivo, 504 h, dose 15-60 mg/kg, time 21 day
[32] = Toxicity in NOD-SCID mouse implanted with human HCT-116 cells assessed as body weight loss at 60 mg/kg, po measured every 2 days for 21 days; format: organism-based; conditions: in vivo, 504 h, time 21 day
[33] = Toxicity in NOD-SCID mouse assessed as appearance of large nucleus in tumor at 60 mg/kg, po measured every 2 days for 21 days by H and E staining based analysis; format: organism-based; conditions: in vivo, 504 h, time 21 day
[34] = Toxicity in NOD-SCID mouse assessed as shortening of villi in intestine at 15 to 60 mg/kg, po measured every 2 days for 21 days by H and E staining based analysis; format: organism-based; conditions: in vivo, 504 h, dose 15-60 mg/kg, time 21 day
[35] = Toxicity in NOD-SCID mouse assessed as loss of crypt depth in intestine at 15 to 60 mg/kg, po measured every 2 days for 21 days by H and E staining based analysis; format: organism-based; conditions: in vivo, 504 h, dose 15-60 mg/kg, time 21 day

IC50 (MOLM-13): 0.478 µM
IC50 (HCT-116): 0.435 µM
IC50 (BXPC-3): 3.18 µM
inhibition [6]: Active
half-life [8]: > 2 h
microsomal CLint [9]: 3.6 µL/min/mg
microsomal CLint [10]: 7.2 µL/min/mg
microsomal CLint [11]: 2.6 µL/min/mg
half-life [12]: 4.2 h
half-life [13]: 5.6 h
half-life [14]: 3.6 h
Cmax [15]: 0.844 µg/mL
Tmax [16]: 0.25 h
AUC(0-t) at 30 h [17]: 1.3 µg·h/mL
AUC(0-t) at 30 h [18]: 3.61 µg·h/mL
AUC(0-t) at 30 h [19]: 5.08 µg·h/mL
AUC(0-inf) [20]: 1.49 µg·h/mL
AUC(0-inf) [21]: 5.83 µg·h/mL
bioavailability [22]: 56%
Cmax [24]: 0.0189 µg/mL
AUC at 6 h [25]: 0.378 µg·h/mL
Structure (SMILES): CONC(=O)/C(=C/n1cnc(-c2cc(C(F)(F)F)cc(C(F)(F)F)c2)n1)c1cncnc1
IC50 (KMS-11): 0.739 µM
IC50 [1]: 0.652 µM
IC50 (LAMA-84): 1.48 µM
IC50 (ARH-77 [2]): 0.304 µM
inhibition (MM1.S [3]): Dose-dependent-effect
Activity (MM1.S [4]): Active
Activity (MM1.S [5]): Active
Activity (MM1.S [7]): Active
IC50 [23]: 18.9 µM
Activity [26]: Non-toxic
Activity [27]: Non-toxic
Activity [28]: Non-toxic
inhibition in vivo at 15 mg/kg (MM1.S [29]): 80.5%
Activity (ARH-77 [30]): Active
Activity [31]: Toxic
Activity [32]: Non-toxic
Activity [33]: Non-toxic
Activity [34]: Non-toxic
Activity [35]: Non-toxic
